Experimental findings from patent publication US20190062272A1, “SMALL MOLECULES FOR IMMUNOGENIC TREATMENT OF CANCER” (Capten Therapeutics Inc., priority 2017, published 2019) are described below.

Structures are written as SMILES. pIC50: −log10 of the molar value.

Holding throughout (type): cell-based
The test system of one test is NIH 3T3 Non-tumor. The experiment in a line: Cytotoxicity assay (Cell Titer GLO, 72 hours), NIH3T3. Conditions: Mus musculus, NIH 3T3 Non-tumor cells, cell viability by Cell Titer GLO, read-out: GC50 (the source's name). The method, then: (§1) Cell lines used: CT26, B16F10 and NIH3T3
(§2) Concentration range of drug to be tested: 50 nM to 50 uM
(§3) Cells were plated in a 96 well plate and when they are about 50% confluent the drug was added in DMSO so that the final concentration of DMSO is 0.1% (v/v) of less and incubated for 72 hours. The cell viability is then determined using Cell Titer GLO.
In general terms: In ATP-based viability assays light output follows the ATP content of the culture.

The subject of another test is B16F10 Melanoma. In words: Cytotoxicity assay (Cell Titer GLO, 72 hours), B16F10. Conditions: Mus musculus, B16-F10, B16F10 Melanoma cells, cell viability by Cell Titer GLO, read-out: GC50 (the source's name). The method, then:
as §1, §2, §3

The next test relates to CT26 Colon Cancer. In words: Cytotoxicity assay (Cell Titer GLO, 72 hours), CT26. As to conditions: Mus musculus, CT26 Colon Cancer cells, cell viability by Cell Titer GLO, read-out: GC50 (the source's name). The protocol: as §1, §2, §3

For the compound `C=CC(=O)NCCSc1ccc(O)c(O)c1` [Compound 10, N-[2-(3,4-dihydroxyphenyl)sulfanylethyl]propenamide], the pIC50 in the test with NIH 3T3 Non-tumor, in the test with B16F10 Melanoma and in the test on CT26 Colon Cancer was under 4.30 throughout.
As for `C=CC(=O)NCCSc1cc(O)ccc1O` [Compound 12, N-[2-(2,5-dihydroxyphenyl)sulfanylethyl]propenamide], the figures for the pIC50 with NIH 3T3 Non-tumor, in the test with B16F10 Melanoma and with CT26 Colon Cancer were 5.48, under 4.30 and 4.85, respectively.
Consider `C=CC(=O)NCCSc1cccc(O)c1O` [Compound 14, N-[2-(2,3-dihydroxyphenyl)sulfanylethyl]propenamide], for which the pIC50 in the test on NIH 3T3 Non-tumor was under 4.30; in the test with B16F10 Melanoma, 5.33; in the test with CT26 Colon Cancer, 5.00.
